Measured values taken from publication PMC12036814 (Angewandte Chemie (International Ed. in English), 2025).
“Also recorded” adds a separate entry of the source.

Assays:
[1] = test system: periodontal ligament cell line (PDL‐hTERT); test: Whole proteome analysis and pathway analysis of treated PDL-hTERT cells; type: cell-based, human; design: dose or concentration left out as unconfirmed; details: same concentrations ([…] and […] µM), 3 days, compared with Ciprofloxacin
[2] = test system: HEK‐293 and PDL‐hTERT cells; test: MTT assay, relative metabolic activity after 3 days; type: cell-based, human; details: 3 days of treatment
Description: Methods and Experimental Procedures
(Alfa Aesar, Haverhill, USA, Cat# J66943 ) stocks were prepared in sterile -filtered 0.1 N HCl to a
maximum concentration of 50 mM. HCl was used as vehicle control, diluted in culture medium, and
Cell culture experiments were performed in HEK 293, A549 or PDL-hTERT cells1 cultured in DMEM high
glucose medium supplemented with 10% FCS and 2 mM glutamine ( all, Sigma-Aldrich, St. Louis, USA,
Cat# G7513) in 5% CO2 atmosphere at 37 °C in Heracell 150i incubators (Thermo Fisher Scientific,
Waltham, USA). The human periodontal ligament (PDL -hTERT) cell line was provided by Prof. Denitsa
Docheva. During standard cell passaging accutase (Sigma-Aldrich) or 2,5x trypsin/0.5% EDTA in PBS
(Capricorn Scientific, Ebsdorfergrund, Germany) was used for cell detachment. Cell dishes in various
sizes (10 cm, 15 cm) and flasks (T75, T175) were used for cultivation (Sarstedt, Nümbrecht, Germany,
purchased from Thermo Fisher Scientific, Waltham, USA, Cat# 130184, 130188.
HEK or PDL-hTERT cells (1,5 x 10^3 cells/well) were seeded into 96 -well plates and grown for 24 h. […]
removed by suction and the formed formazan crystals dissolved in 200 μL DMSO. The read-out was
performed with an Infinite M200 Pro microplate reader (Tecan, Männedorf, Switzerland) at 570 nm
and background was subtracted at 630 nm. The absorbance values were normalized to DMSO/0.1 N […]

ADAL1 = target: T1, ADAL1 (Homo sapiens, UniProt Q6DHV7); test: ADAL1 in vitro activity assay (N6-methyl-AMP absorbance shift); type: biochemical; details: tested up to 500 µM
T1 construct: Full length ADAL1 gene synthesis; made in house; host or cells: E. coli BL21 (DE3)
T1 sequence (Q6DHV7 1-355): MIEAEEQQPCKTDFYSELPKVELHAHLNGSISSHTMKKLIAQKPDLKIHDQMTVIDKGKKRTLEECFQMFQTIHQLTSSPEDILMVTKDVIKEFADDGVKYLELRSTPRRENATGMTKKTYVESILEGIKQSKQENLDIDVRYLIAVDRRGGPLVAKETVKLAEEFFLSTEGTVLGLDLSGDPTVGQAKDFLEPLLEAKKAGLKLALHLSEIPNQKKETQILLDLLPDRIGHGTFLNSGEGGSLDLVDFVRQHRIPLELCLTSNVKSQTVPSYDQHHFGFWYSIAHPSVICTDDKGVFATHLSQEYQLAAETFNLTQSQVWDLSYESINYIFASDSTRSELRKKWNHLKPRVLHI
Description: Cytiva, Marlborough, USA, Cat# 6818-1304). Nickel-affinity chromatography purification was
performed with Äkta Pure system (GE Healthcare, Chicago, USA) using an HisTrap HP (5 mL, Cytiva,
Marlborough, USA, Cat# 17-5248) column equilibrated in buffer A. The filtered lysate was applied via
the sample pump and subsequently the column was washed for 15 column volumes (CV) with buffer
A, before gradient elution with buffer B (50 mM Tris pH 8.0, 300 mM NaCl, 5 mM β-mercaptoethanol,
0.1% (v/v) NP40, 10% (v/v) glycerol and 400 mM imidazole) from 0% to 100% buffer B over for 25 CV.
ADAL1 containing fraction s were identified via SDS-PAGE, pooled and dialyzed in buffer 1 (20 mM Tris
pH 8.0, 1 mM DTT, 10% (v/v) glycerol ) in a dialysis membrane ( Carl Roth, Karlsruhe, Germany, Cat#
E659.1) overnight at 4 °C. […]
methyl-AMP (Cayman Chemical, Ann Arbor, USA, Cat# 23382) to […] by ADAL1 was monitored by
the shift of the absorbance maxima of educt ( 265 nm) and product (250 nm). […]
substrate N6-methyl-AMP (1 µL of 20 mM stock in PBS). The absorbance at 270 nm was continuously
measured using a Infinite M200 Pro (Tecan, Männedorf, Switzerland) plate reader. […]
the absorbance readings were calculated via linear regression using GraphPad Prism (version 9). […]
residual activity of compound treated protein was determined in comparison to vehicle -treated […]

NUDT1 = NUDT1 (Homo sapiens, UniProt P36639); test: NUDT1 in vitro activity assay (malachite green); type: biochemical; design: Full length NUDT1 gene synthesis; N-terminal His tag with thrombin site from pET28a(+) (NdeI/XhoI) (N, cleaved yes); made in house; host or cells: E. coli BL21 (DE3); details: tested 1-500 µM; highest tested 500 µM
IDH2 = target: T2, IDH2 (Homo sapiens, UniProt P48735); test: IDH2 in vitro activity assay (NADPH-coupled diaphorase/resazurin); type: biochemical; details: known inhibitor control
T2 construct: purchased active motif 31615
T2 sequence (P48735 40-452): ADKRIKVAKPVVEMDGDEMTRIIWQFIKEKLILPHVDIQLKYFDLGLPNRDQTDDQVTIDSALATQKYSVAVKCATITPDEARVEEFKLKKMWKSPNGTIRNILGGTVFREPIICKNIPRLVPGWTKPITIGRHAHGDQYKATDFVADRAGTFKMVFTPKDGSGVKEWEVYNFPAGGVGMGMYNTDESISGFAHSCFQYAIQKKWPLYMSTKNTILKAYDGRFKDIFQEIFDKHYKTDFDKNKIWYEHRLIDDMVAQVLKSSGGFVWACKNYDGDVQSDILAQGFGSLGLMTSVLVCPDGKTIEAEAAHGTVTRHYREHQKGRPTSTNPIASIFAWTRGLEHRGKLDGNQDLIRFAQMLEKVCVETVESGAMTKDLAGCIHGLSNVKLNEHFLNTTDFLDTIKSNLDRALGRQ
Description: Recombinant human isocitrate dehydrogenase was purchased from active motif (Carlsbad, USA, Cat#
Activity assays were performed as previously described with minor
modifications.12 Briefly, the catalytic activity of converting is ocitrate to 2-oxogluterate (α-
ketoglutarate) converting the cofactor NADP+ to NADPH was measured by a NADPH-coupled assay.
The NADPH-dependent diaphorase (Sigma-Aldrich, St. Louis, USA, Cat# SLBT8928) converted resazurin
for activity read-out. To IDH2 (2 nM) in assay buffer (150 mM NaCl, 50 mM K2HPO4, 10 mM MnCl2, 10
mercaptoethanol (cend= 2.5 mM) for a total reaction volume of 79 µL per well (black 96-well plate, 4
replicates per condition). Conditions lacking IDH2 were added as control. After addition of 1 µL of
vehicle controls, the mixture was incubated at 25 °C for 1 h in the dark. Subsequently, the reaction was
initiated by addition of 20 µL of substrate mix (0.2 mM isocitrate, 60 µg/mL diaphorase, 200 µM
resazurin in assay buffer). Fluorescence was continuously measured using an Infinite M200 pro (Tecan,
the fluorescence increases were calculated via linear regression using GraphPad Prism (version 9).

Row | SMILES | regulation of ETC complex I and IV subunits [1] | approximate apparent IC50 (metabolic activity, MTT) [2] | ADAL1 in vitro activity, effect (ADAL1) | NUDT1 in vitro activity, inhibition (NUDT1) | extent of IDH2 (wild-type) inhibition compared with the FQs (IDH2)
1 | C[C@H]1COc2c(N3CCN(C)CC3)c(F)cc3c(=O)c(C(=O)O)cn1c23 [Levofloxacin] | also observed using the same concentrations, although to a lesser extent | well above the reported plasma concentrations | no significant effect; also recorded: no inhibitory effect was detected | only at the highest tested concentration (500 µM); also recorded: only significant at the highest concentration tested | 
2 | CC(C)(O)CNc1nc(Nc2ccnc(C(F)(F)F)c2)nc(-c2cccc(C(F)(F)F)n2)n1 [Enadisenib, Enasidenib] |  |  |  |  | similar
